Assay [1] addresses T1, Na channel Nav 1.3 (Homo sapiens, UniProt Q9NY46).
T1 construct: expressed in transfected cells; host or cells: Xenopus laevis oocytes injected with Nav1.3 cRNA
Briefly: Electrophysiological assay, tonic block, two electrodes voltage clamp in Xenopus oocytes. The format is cell-based. Conditions: depolarized (-40 mV, half max current availability) condition, read-out: Nav 1.3 Dep. Curr IC50. Here is the method:
Electrophysiological Assay
Experiments for the determination of the tonic block are carried out on isolated Xenopus oocytes expressing the Na channel Nav 1.3. Currents are recorded using the two electrodes voltage clamp (TEVC) technique
The day after the preparation, the oocytes are injected (Drummond Nanoject) with 20 ng Nav1.3 cRNA and maintained in NDE.
Starting from 48 h after the mRNA injection whole cell currents are recorded using a two-microelectrode voltage clamp automated workstation.
Compounds are prepared in stock solutions (20 mM) and dissolved to the final concentrations in the external bath solution.
The current/voltage (I/V) relationship for the Nav1.3 currents expressed in oocytes was first studied in order to determine the membrane potential evoking the maximal activation.
The steady-state inactivation properties of the Nav1.3 currents were then studied in order to determine the membrane potentials for the resting state (Vrest) at which channel availability is maximal (Imax), and the membrane potential for the half maximal inactivation (V ½) producing half of the max current availability (I ½) respectively. This two voltage conditions were then used for the evaluation of the voltage dependence of the tonic block.
Finally a two-step protocol was used to determine the voltage dependence of the block of Nav1.3: the oocytes were clamped at −80 mV, the currents were activated by a 100 ms step pulse to 0 mV (Vtest) from a 3000 ms preconditioning potential at −80 mV (resting, Imax condition) and −40 mV (depolarized, I ½ condition), respectively.
Current amplitudes in the two conditions were recorded in the absence and in the presence of different concentrations of compound (washout was made in between) in order to determine the concentration-inhibition curves and IC50 values for the tonic block in the depolarized (half max current availability) conditions.
The activity on Nav 1.3 sodium channel, expressed as IC50 of the (R)-isomers of this invention and of the comparison compounds is reported in Table I.

Assay [2] relates to mice. Briefly: Mice formalin test. The format is in vivo. Conditions: 20 mg/kg p.o. 15 min before formalin; cumulative licking time, late phase 30-40 min, vs control group. Here is the method:
According to a modified protocol from Rosland et al., (1990) mice were injected subcutaneously (s.c.) with 20 μL of 2.7% solution of formalin into the plantar surface of left hindpaw and placed immediately into clear PVC observation chambers (23×12×13 cm).
The test compound (20 mg/kg) was administered p.o. 15 min before formalin injection in a volume of 10 ml/kg body weight to groups of 10 mice per dose. Control group was treated with vehicle.
Pain behavior was quantified by counting the cumulative licking time (seconds) of the injected paw with formalin. Measurements were taken during the late phase 30-40 min after formalin injection (Tjolsen et al 1992).
The analgesic effect of the compounds was calculated as the % of inhibition of the cumulative licking time respect the control group.

In assay [3] the target is T2, N-type calcium channels (Homo sapiens, UniProt Q00975).
T2 construct: IMR32 preferentially express on the membrane surface N-type calcium channels; endogenous in cells; host or cells: IMR32 human neuroblastoma cells, differentiated with dibutyryl-cAMP and bromodeoxyuridine
Briefly: Calcium influx assay (fluorescence, differentiated IMR32 cells with nifedipine). The format is cell-based. Conditions: 1 μM nifedipine, 100 mM KCl depolarization, read-out: Ca 2+ N-Type IC50. Here is the method: Under differentiating conditions, IMR32 preferentially express on the membrane surface N-type calcium channels. The remaining L-type calcium channels were blocked using the selective L type blocker, nifedipine. In these experimental conditions, only N type channels can be detected.
IMR32 cells were differentiated using 1 mM dibutyryl-cAMP and 2.5 μM bromodeoxyuridine for 8 days (4 times) in 225 cm^2 flask, then detached, seeded at 200,000 cells/well on 96 polylysine-coated plates and further incubated for 18-24 h in the presence of differentiating buffer before use.
The Ca^2+ Kit Assay (Molecular Devices), based on a fluorescent calcium indicator 485-535 nm wavelength, was used.
Differentiated cells were incubated with dye loading for 30 min at 37° C. then, nifedipine alone (1 μM) or in the presence of w-conotoxin or test compounds were added for further 15 min.
The fluorescence (485-535 nm) was measured before and after (30-40 sec) the automated injection of 100 mM KCl depolarizing solution using a Victor plate reader (Perkin Elmer).
The inhibition curves were calculated from 5 concentrations, each in triplicate, and the IC50 determined using a linear regression analysis.
The activity on N-type Calcium channel, expressed as IC50 of the (R)-isomer of this invention and the comparison compounds is reported in Table I.

The target in assay [4] is T3, MAO-B (Rattus norvegicus, UniProt P19643).
T3 construct: Membrane preparations (crude mitochondrial fraction); from tissue; host or cells: rat brain, crude mitochondrial fraction
T3 sequence (P19643 1-520): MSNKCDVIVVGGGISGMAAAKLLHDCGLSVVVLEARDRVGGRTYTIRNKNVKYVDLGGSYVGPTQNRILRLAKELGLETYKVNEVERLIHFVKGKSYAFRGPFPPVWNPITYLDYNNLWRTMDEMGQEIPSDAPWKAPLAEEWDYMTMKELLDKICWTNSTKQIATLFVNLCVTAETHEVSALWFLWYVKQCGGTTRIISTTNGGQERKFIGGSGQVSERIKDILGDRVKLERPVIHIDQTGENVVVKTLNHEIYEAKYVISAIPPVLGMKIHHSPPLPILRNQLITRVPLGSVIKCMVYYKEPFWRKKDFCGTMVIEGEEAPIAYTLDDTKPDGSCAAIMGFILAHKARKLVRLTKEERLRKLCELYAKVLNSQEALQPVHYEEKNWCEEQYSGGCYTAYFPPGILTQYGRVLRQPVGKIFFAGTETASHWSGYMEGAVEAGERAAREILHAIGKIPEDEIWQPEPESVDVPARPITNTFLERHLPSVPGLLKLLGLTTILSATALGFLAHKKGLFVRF
In words: In vitro MAO-B enzyme activity assay (radioenzymatic, 14C-phenylethylamine). Particulars: rat brain crude mitochondrial fraction; 30 min preincubation; concentration inhibiting 90% enzyme activity. The format is biochemical. Here is the method:
In Vitro MAO-B Enzyme Activity Assay
Membrane preparations (crude mitochondrial fraction): male Wistar rats (Harlan, Italy-175-200 g) were sacrificed under light anaesthesia and brains were rapidly removed and homogenized in 8 vol. of ice-cold 0.32 M sucrose buffer containing 0.1 M EDTA, pH 7.4. The crude homogenate was centrifuged at 2220 rpm for 10 min and the supernatant recovered. The pellet was homogenized and centrifuged again and the two supernatants were pooled and centrifuged at 9250 rpm for 10 min, +4° C. The pellet was resuspended in fresh buffer and centrifuged at 11250 rpm for 10 min, +4° C. The resulting pellet was stored at −80° C. until use.
In vitro enzyme activity assay: the enzyme activities were assessed with a radioenzymatic assay using the selective substrate ^14C-phenylethylamine (PEA) for MAO-B.
The mitochondrial pellet (500 μg protein) was resuspended in 0.1M phosphate buffer pH 7.4 and 500 μl was added to 50 μl of the test compound or buffer for 30 min at 37° C. (preincubation) then the substrate (50 μl) was added. The incubation was carried out for 10 min at 37° C. (^14C-PEA, 0.5 μM).
The reaction was stopped by adding 0.2 ml HCl or perchloric acid. After centrifugation, the deaminated metabolites were extracted with 3 ml of toluene and the radioactive organic phase measured by liquid scintillation spectrometry at 90% efficiency. Radioactivity in the eluate indicates the production of neutral and acidic metabolites formed as a result of MAO-B activity.
The enzymatic activity was expressed as nmoles of substrate transformed/mg protein/min. The activity of MAO-B in the sample was expressed as a percentage of control activity in the absence of inhibitors after subtraction of appropriate blank values.
The drug inhibition curves were obtained from at least eight different concentrations, each in duplicate (10^−10 to 10^−5 M) and the IC90 values (the drug concentration inhibiting 90% enzyme activity) with confidence intervals determined using linear regression analysis. (aided-computer program).
To reach a significant increase in neurotransmitter levels, MAO-B enzyme activity has to be blocked at least by 90%.

SMILES strings stand for the structures. pIC50: −log10 of the molar value.

T2 sequence (Q00975 whole entry): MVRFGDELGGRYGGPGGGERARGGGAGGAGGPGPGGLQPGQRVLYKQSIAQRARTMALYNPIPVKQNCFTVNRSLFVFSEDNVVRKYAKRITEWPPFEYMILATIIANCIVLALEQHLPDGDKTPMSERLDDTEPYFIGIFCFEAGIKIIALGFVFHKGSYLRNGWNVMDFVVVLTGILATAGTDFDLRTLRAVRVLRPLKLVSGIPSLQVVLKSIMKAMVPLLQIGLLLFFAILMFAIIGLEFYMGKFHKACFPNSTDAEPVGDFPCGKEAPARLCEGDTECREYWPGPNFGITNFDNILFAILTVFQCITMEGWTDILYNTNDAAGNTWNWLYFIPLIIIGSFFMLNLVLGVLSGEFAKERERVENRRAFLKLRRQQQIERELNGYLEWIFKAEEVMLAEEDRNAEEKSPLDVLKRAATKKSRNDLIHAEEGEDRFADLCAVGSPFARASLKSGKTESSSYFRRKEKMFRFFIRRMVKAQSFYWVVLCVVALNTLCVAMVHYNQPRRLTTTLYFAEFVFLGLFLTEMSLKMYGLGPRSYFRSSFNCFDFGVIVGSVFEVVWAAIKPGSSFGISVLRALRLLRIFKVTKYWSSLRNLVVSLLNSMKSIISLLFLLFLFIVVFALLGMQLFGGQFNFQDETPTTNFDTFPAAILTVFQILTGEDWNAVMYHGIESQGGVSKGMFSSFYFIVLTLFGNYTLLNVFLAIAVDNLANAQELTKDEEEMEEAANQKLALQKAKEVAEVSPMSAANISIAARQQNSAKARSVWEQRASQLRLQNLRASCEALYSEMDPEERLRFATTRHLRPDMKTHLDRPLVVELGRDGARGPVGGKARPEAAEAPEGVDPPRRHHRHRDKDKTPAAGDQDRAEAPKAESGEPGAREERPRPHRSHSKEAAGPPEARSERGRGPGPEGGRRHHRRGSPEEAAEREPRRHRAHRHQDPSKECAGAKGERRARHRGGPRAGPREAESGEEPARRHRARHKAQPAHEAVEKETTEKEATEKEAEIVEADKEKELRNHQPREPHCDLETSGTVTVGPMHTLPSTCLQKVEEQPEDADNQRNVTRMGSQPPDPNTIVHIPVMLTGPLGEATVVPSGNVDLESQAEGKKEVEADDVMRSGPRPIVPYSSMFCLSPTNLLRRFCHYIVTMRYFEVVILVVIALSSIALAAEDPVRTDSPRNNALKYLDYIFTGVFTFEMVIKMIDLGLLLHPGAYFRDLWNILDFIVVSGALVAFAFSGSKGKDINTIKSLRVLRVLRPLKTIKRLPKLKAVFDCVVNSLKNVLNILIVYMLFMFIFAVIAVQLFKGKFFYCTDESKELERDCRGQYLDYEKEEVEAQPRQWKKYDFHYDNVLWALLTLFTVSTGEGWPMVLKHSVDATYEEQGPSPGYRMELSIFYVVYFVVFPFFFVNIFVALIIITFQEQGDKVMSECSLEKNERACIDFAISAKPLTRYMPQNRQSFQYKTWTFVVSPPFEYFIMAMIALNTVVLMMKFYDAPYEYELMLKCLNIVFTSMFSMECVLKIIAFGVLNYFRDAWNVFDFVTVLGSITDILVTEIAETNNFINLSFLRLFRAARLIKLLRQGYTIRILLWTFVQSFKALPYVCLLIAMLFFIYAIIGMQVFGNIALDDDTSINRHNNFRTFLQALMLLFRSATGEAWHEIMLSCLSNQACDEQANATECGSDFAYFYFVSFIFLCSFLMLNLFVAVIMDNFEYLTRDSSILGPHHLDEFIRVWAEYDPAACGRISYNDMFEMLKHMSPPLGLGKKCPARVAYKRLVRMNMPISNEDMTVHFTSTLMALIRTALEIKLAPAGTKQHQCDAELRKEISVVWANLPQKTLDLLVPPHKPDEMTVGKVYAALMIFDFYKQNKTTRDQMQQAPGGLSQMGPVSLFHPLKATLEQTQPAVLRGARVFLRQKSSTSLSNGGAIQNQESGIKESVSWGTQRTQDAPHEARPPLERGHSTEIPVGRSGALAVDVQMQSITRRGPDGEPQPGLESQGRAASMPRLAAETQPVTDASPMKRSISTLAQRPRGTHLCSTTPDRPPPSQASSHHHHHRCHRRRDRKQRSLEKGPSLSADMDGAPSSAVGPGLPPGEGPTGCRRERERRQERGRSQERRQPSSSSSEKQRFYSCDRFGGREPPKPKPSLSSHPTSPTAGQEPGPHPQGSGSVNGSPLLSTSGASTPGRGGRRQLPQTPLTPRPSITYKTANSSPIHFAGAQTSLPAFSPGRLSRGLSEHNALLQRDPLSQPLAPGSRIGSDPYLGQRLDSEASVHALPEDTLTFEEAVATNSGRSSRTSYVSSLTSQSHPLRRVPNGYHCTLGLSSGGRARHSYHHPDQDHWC
T2 sequence (P54284 whole entry partner): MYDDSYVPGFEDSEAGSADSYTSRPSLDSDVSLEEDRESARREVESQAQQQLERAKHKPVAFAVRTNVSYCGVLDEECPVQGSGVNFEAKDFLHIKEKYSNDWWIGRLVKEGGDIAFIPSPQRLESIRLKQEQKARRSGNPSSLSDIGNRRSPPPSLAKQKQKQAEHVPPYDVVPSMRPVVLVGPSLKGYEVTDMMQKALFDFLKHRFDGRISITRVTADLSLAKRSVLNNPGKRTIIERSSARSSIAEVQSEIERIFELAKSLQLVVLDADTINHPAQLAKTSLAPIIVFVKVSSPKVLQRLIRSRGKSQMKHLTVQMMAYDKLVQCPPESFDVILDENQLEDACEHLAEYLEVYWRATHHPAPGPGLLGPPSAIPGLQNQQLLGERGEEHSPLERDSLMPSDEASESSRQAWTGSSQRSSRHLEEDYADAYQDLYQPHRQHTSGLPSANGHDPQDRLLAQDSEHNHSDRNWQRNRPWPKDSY
T2 sequence (P54289 25-956 partner limits assumed): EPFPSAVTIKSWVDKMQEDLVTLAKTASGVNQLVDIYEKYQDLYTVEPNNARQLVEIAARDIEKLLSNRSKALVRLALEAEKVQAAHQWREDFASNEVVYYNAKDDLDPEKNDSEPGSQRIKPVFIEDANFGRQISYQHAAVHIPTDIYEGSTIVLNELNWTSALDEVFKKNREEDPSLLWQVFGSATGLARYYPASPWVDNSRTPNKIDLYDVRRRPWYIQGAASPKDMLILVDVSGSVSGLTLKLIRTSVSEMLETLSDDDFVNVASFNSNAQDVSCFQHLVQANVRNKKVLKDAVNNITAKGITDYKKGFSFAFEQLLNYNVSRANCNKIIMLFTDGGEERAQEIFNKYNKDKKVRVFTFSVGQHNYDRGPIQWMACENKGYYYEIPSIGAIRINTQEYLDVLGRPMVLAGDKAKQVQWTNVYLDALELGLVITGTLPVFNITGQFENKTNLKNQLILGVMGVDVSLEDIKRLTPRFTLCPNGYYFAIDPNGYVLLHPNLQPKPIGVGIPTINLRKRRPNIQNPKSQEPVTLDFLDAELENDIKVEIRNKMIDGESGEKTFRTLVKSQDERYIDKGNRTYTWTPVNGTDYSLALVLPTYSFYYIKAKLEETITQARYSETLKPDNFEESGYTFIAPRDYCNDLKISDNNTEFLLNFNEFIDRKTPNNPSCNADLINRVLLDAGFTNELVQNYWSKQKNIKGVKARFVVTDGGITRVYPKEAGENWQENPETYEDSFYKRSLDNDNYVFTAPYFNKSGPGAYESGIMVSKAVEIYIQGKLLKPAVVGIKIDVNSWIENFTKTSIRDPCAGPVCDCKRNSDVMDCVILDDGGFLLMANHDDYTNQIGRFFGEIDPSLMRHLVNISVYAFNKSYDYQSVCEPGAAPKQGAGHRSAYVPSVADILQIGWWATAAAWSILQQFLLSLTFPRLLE
T2 sequence (P54289 957-1103 partner limits assumed): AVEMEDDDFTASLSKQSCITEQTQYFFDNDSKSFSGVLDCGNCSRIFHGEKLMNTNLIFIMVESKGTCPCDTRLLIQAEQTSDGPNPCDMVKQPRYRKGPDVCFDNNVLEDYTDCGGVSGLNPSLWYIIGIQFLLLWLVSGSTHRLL

Regarding `CC(NCc1ccc(OCc2cccc(Cl)c2)cc1)C(N)=O` (single isomer, unassigned; isomer 2) [2-[4-(3-chlorobenzyloxy)benzylamino]-propanamide S isomer, 2-[4-(3-chlorobenzyloxy)benzylamino]-propanamide], the results for the pIC50 in assay [1] and in assay [3] were 4.10 and 4.03, respectively. Besides, the “FORMALIN TEST % inibition” value in assay [2] is reported as 45%. The IC90 – broadly, the concentration needed for an effect of 90% – in assay [4] is 1.64 µM.
The corresponding values for `CNC(=O)C(C)NCc1ccc(OCc2ccccc2Cl)cc1` (single isomer, unassigned; isomer 2) [2-[4-(2-chlorobenzyloxy)benzylamino]-N-methyl-propanamide S isomer, 2-[4-(2-chlorobenzyloxy)benzylamino]-N-methyl-propanamide] are 3.68, 4.52, 32% and 2.8 µM.
In the same order, the values of `CNC(=O)[C@@H](C)NCc1ccc(OCc2ccccc2Cl)cc1.CS(=O)(=O)O` [2-[4-(2-chlorobenzyloxy)benzylamino]-N-methyl-propanamide R isomer, (R)-2-[4-(2-chlorobenzyloxy)benzylamino]-N-methylpropanamide methanesulfonate] are 4.42, 5.08, 49% and 122 µM.
With `CC(NCc1ccc(OCc2ccccc2F)cc1)C(N)=O` (single isomer, unassigned; isomer 2) [2-[4-(2-fluorobenzyloxy)benzylamino]-propanamide S isomer, 2-[4-(2-fluorobenzyloxy)benzylamino]-propanamide], the pIC50 – broadly, the negative decadic logarithm of the IC50, by convention in mol/L – in assay [1] was 3.69; in assay [3], 4.64. The “FORMALIN TEST % inibition” value in assay [2] came to 79%. The molecule also registered an IC90 in assay [4] of 28.4 µM.
For `CS(=O)(=O)O.C[C@@H](NCc1ccc(OCc2ccccc2F)cc1)C(N)=O` [2-[4-(2-fluorobenzyloxy)benzylamino]-propanamide R isomer, (R)-2-[4-(2-fluorobenzyloxy)benzylamino]propanamide methanesulfonate], the results for the pIC50 in assay [1] and in assay [3] were 3.83 and 4.53, respectively. Also, the “FORMALIN TEST % inibition” value in assay [2] is listed as 80%. This molecule also showed an IC90 in assay [4] of 2500 µM.
As for `CS(=O)(=O)O.C[C@@H](NCc1ccc(OCc2cccc(Cl)c2)cc1)C(N)=O` [2-[4-(3-chlorobenzyloxy)benzylamino]-propanamide R isomer, (R)-2-[4-(3-chlorobenzyloxy)benzylamino]propanamide methanesulfonate], the pIC50 in assay [1] was 4.41; in assay [3], 4.70. In assay [2], the “FORMALIN TEST % inibition” value was found to be 39%. In assay [4], this molecule came in with an IC90 of 32.3 µM.

The record behind these values is patent US20110184068A1, “USE OF (HALOBENZYLOXY) BENZYLAMINO-PROPANAMIDES FOR THE MANUFACTURE OF MEDICAMENTS ACTIVE AS SODIUM AND/OR CALCIUM CHANNEL SELECTIVE MODULATORS” (Newron Pharmaceuticals S.p.A., priority 2004, published 2011).
